Measured values: the supplement of paper PMC10307832

Columns and labels:
Experiment in all cases: relative viability (nuclei count vs DMSO), 5 days (fraction); higher = more cells survive
XMD13-2 = compound: C1CC1C(=O)NC2=NNC3=C2C=CC(=C3)C4=CC(=CC=C4)C(=O)NC5CC5 [XMD13-2]
In short: (§1)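 For viability, nuclei in each treated well were divided by nuclei in vehicle wells and the median across plates was taken. Lung cancer cell lines in 1536-well plates were pinned with five library-drug doses (not always all listed) spaced by √10, cultured 5 days without medium change, and imaged at 4× after Hoechst staining, with plates passing only at control CV below 25% and at least one doubling.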

ALW-II-49-7 = compound: Cc1ccc(C(=O)Nc2cccc(C(F)(F)F)c2)cc1Nc1cncc(C(N)=O)c1 [ALW-II-49-7]
In short: as §1

Dasatinib = compound: Cc1nc(Nc2ncc(C(=O)Nc3c(C)cccc3Cl)s2)cc(N2CCN(CCO)CC2)n1 [Dasatinib]
In short: as §1

Row | Cell Line | relative viability (XMD13-2; 0.05 µM) | relative viability (XMD13-2; 0.1581 µM) | relative viability (XMD13-2; 0.5 µM) | relative viability (XMD13-2; 1.581 µM) | relative viability (XMD13-2; 5 µM) | relative viability (ALW-II-49-7; 0.08 µM) | relative viability (ALW-II-49-7; 0.253 µM) | relative viability (ALW-II-49-7; 0.8 µM) | relative viability (ALW-II-49-7; 2.53 µM) | relative viability (ALW-II-49-7; 8 µM) | relative viability (Dasatinib; 0.005 µM) | relative viability (Dasatinib; 0.01581 µM) | relative viability (Dasatinib; 0.05 µM) | relative viability (Dasatinib; 0.075 µM, anchor plate) | relative viability (Dasatinib; 0.1581 µM) | relative viability (Dasatinib; 0.5 µM)
1 | NCI-H1623 | 0.948 | 1.03 | 0.879 | 0.89 | 0.965 | 0.934 | 0.903 | 0.947 | 0.967 | 0.91 | 0.97 | 0.851 | 0.935 | 0.542 | 0.767 | 0.564
2 | BEN | 1.07 | 1.01 | 0.992 | 0.874 | 0.933 | 1.04 | 1.01 | 0.728 | 0.825 | 0.902 | 0.776 | 0.552 | 0.487 | 0.322 | 0.423 | 0.376
3 | EPLC-272H | 1.18 | 0.882 | 1.16 | 0.738 | 0.646 | 1.01 | 0.702 | 0.945 | 0.977 | 0.86 | 0.965 | 0.916 | 0.882 | 0.356 | 0.71 | 0.295
4 | LK-2 | 1.24 | 0.904 | 1.05 | 0.915 | 0.966 | 1.03 | 0.971 | 1 |  | 0.926 | 0.943 | 0.569 | 0.587 | 0.311 | 0.297 | 0.257
5 | NCI-H1299 | 0.984 | 1.04 | 1.05 | 1.04 | 1.09 | 1.05 | 1.05 | 0.938 | 0.921 | 0.843 | 1.04 | 0.996 | 0.998 |  | 0.886 | 0.263
6 | ChaGo-K-1 | 1.02 | 0.99 | 1.04 | 1.03 | 0.93 | 1.03 | 0.96 | 0.909 | 0.974 | 1.01 | 0.967 | 0.976 | 0.897 | 0.597 | 0.859 | 0.686
7 | NCI-H1703 | 1.29 | 1.33 | 1.05 | 0.764 | 1.06 | 0.982 | 0.981 | 0.734 | 0.429 | 0.434 | 0.482 | 0.457 | 0.311 |  | 0.177 | 0.148
8 | HCC-827 | 1.06 | 1.01 | 1.02 | 0.973 | 0.944 | 1.02 | 1.03 | 1.02 | 1.02 | 1.02 | 1.05 | 0.926 | 1.04 | 0.324 | 0.953 | 0.126
9 | NCI-H1993 | 1.07 | 0.895 | 0.885 | 0.822 | 0.925 | 0.899 | 0.952 | 1.07 | 1.07 | 1.01 | 0.793 | 0.653 | 0.856 | 0.625 | 0.736 | 0.507
10 | NCI-H647 | 1.12 | 1.05 | 1.06 | 1.03 | 0.747 | 0.904 | 0.944 | 0.926 | 0.967 | 0.795 | 0.76 | 0.572 | 0.372 | 0.199 | 0.227 | 0.207
